Like-named read-outs stand apart in the source and are kept apart here. Positions of bridges follow the written chain, without caps; N, C: chain ends. Non-standard residues stand in square brackets, D forms with d. Residues, ends and D or L forms follow the SMILES beside them. Groups on a side chain read outwards from the residue. Chains are numbered I, II in the order given. *: point of attachment. DM1Mal(CH2)2CO = COc1cc2cc(c1Cl)N(C)C(=O)C[C@H](OC(=O)[C@H](C)N(C)C(=O)CCSC1CC(=O)N(CCC(=O)*)C1=O)[C@]1(C)O[C@H]1[C@H](C)[C@@H]1C[C@@](O)(NC(=O)O1)[C@H](OC)/C=C/C=C(\C)C2; Camptothecin(20S-OCO) = CC[C@@]1(OC(=O)*)C(=O)OCc2c1cc1n(c2=O)Cc2cc3ccccc3nc2-1; X1 = CC[C@@]1(O*)C(=O)OCc2c1cc1n(c2=O)Cc2cc3ccccc3nc2-1; X2 = CC(=O)N[C@@H](CSC1CC(=O)N(CCC(=O)*)C1=O)C(=O)O; Dolaproine = CO[C@@H]([C@@H]1CCCN1)[C@@H](C)C(=O)O; Dil = CC[C@H](C)[C@H](NC)[C@@H](CC(=O)O)OC; NMe2Val = CC(C)[C@@H](C(=O)*)N(C)C; PEG5 = NCCOCCOCCOCCOCCOCCC(=O)O; Cit = NC(=O)NCCC[C@H](N)C(=O)O; PEG4 = NCCOCCOCCOCCOCCC(=O)O; Dab = NCC[C@H](N)C(=O)O; Dap = NC[C@H](N)C(=O)O; Sar = CNCC(=O)O
Molecular target: T1, recombinant human Cathepsin B (Homo sapiens, UniProt P07858)
T1 construct: purchased R&D Systems (Bio-Techne AG) 953-CY-010
Test: Recombinant human Cathepsin B-induced cleavage (in vitro enzymatic cleavage assay, UHPLC-MS/MS)
Format: biochemical
Settings: for half-life at 10 μM: human; for Ratio (T1/2 Compound/T1/2 Reference): reference Cys-MC-Val-Cit-PABC-MMAF; for cleavage rate compared to reference PABC compound (times faster): versus Cys-MC-Val-Cit-PABC-MMAF
Procedure: Cat B-induced cleavage of the compounds of the present invention was evaluated according to the in vitro enzymatic cleavage assay using recombinant human Cathepsin B and UHPLC-MS/MS analysis as described below.
Reference compounds Cys-MC-Val-Cit-PABC-MMAF and MMAF were used as positive controls.
The in vitro enzymatic assay was conducted at 37° C. with the test compounds at a concentration of 10 μM (2.5 μM when the test compound is an antibody-drug conjugate) in the presence of activated recombinant human Cathepsin B enzyme at 2 μg/mL in a 25 mM MES buffer pH 5.0. The enzymatic cleavage reaction was stopped for each defined time point by mixing an equal volume of acetonitrile+0.1% FA containing an internal standard (warfarine at 8 μM).
Analysis was conducted using a Waters Acquity UPLC System coupled to a Waters Xevo TQ triple quad mass spectrometer. UHPLC was conducted depending on the test compounds with a BEH C8 1.7 μm 100×2.1 mm or BEH C18 1.7 μm 50×2.1 mm or HSS T3 1.7 μm 50×2.1 mm columns heated at 45° C. or 50° C. and fitted with 2 μm insert filter pre-columns (available from Waters), and solvent systems A1 (H2O+0.1% FA) and B1 (acetonitrile+0.1% FA) at a flow rate of 0.6 mL/min and a 10-95% gradient of B1 over 1.9 min.
MS/MS was performed using electrospray ionization (ESI) interface in positive mode and specific MRM transitions for each tested compound.

[1] = pH 5, 10 μM test compound, Cathepsin B 2 μg/mL, 25 mM MES buffer pH 5.0, 37° C., read-out: T1/2 Compound
[2] = pH 5, text and figure legends, 10 μM test compound, read-out: t1/2 (Exo-Cat B-induced drug release study)
[3] = 10 μM test compound, Cathepsin B 2 μg/mL, 25 mM MES buffer pH 5.0, 37° C., read-out: T1/2 Compound

Structure (SMILES) | half-life at 10 μM [1] [min] | Ratio (T1/2 Compound/T1/2 Reference) | Cat B-induced cleavage, in words | half-life at 10 μM [2] [min] | cleavage rate compared to reference PABC compound (times faster) [fold] | half-life at 10 μM [3] [min]
CC[C@H](C)[C@@H]([C@@H](CC(=O)N1CCC[C@H]1[C@H](OC)[C@@H](C)C(=O)N[C@@H](Cc1ccccc1)C(=O)N[C@@H](CCCNC(=N)N)C(=O)N[C@@H](CCCCNC(=O)CCOCCOCCOCCOCCOCCNC(=O)CCN1C(=O)CC(SC[C@H](NC(C)=O)C(=O)O)C1=O)C(=O)N[C@@H](Cc1ccccc1)C(=O)O)OC)N(C)C(=O)[C@@H](NC(=O)[C@H](C(C)C)N(C)C)C(C)C (stereo partly drawn) [Compound 1, AF-Arg-Lys(PEG4-Mal-Cys-Ac)-Phe-OH] (NMe2Val-V[Dil][Dolaproine]FRK([PEG5-X2])F-OH) | 1.5 | 0.12 |  |  |  | 
CC[C@H](C)[C@@H]([C@@H](CC(=O)N1CCC[C@H]1[C@H](OC)[C@@H](C)C(=O)N[C@@H](Cc1ccccc1)C(=O)N[C@@H](CCCNC(=N)N)C(=O)N[C@@H](Cc1ccccc1)C(=O)N[C@@H](CCCCNC(=O)CCOCCOCCOCCOCCNC(=O)CCN1C(=O)CC(SC[C@H](NC(C)=O)C(=O)O)C1=O)C(=O)O)OC)N(C)C(=O)[C@@H](NC(=O)[C@H](C(C)C)N(C)C)C(C)C (stereo partly drawn) [Compound 3, AF-Arg-Phe-Lys(PEG4-Mal-Cys-Ac)-OH] (NMe2Val-V[Dil][Dolaproine]FRFK([PEG4-X2])-OH) | 1.4 | 0.11 |  |  |  | 
CC[C@@]1(OC(=O)CN(C)C(=O)CC[C@H](NC(=O)[C@H](CCCNC(=N)N)NC(=O)[C@H](Cc2ccccc2)NC(=O)CCOCCOCCOCCOCCOCCNC(=O)[C@@H](N)CCCNC(=N)N)C(=O)N[C@@H](Cc2ccccc2)C(=O)O)C(=O)OCc2c1cc1n(c2=O)Cc2cc3ccccc3nc2-1 [Compound 8, Arg-PEG4-Phe-Arg-Glu(Sar-OCPT)-Phe-OH] (H-R[PEG5]FRE([Sar-X1])F-OH; N-terminus assumed) | 2.2 | 0.19 | rapidly cleaved |  |  | 
CC[C@@]1(OC(=O)NC[C@H](NC(=O)[C@H](CCCNC(=N)N)NC(=O)[C@H](Cc2ccccc2)NC(=O)CCOCCOCCOCCOCCOCCNC(=O)[C@@H](N)CCCNC(=N)N)C(=O)N[C@@H](Cc2ccccc2)C(=O)O)C(=O)OCc2c1cc1n(c2=O)Cc2cc3ccccc3nc2-1 [Compound 9, Arg-PEG4-Phe-Arg-Dap(CO-CPT)-Phe-OH] (H-R[PEG5]FR[Dap](Camptothecin(20S-OCO))F-OH; N-terminus assumed) | 4.5 | 0.63 |  |  |  | 
CC[C@@]1(OC(=O)NCC[C@H](NC(=O)[C@H](CCCNC(=N)N)NC(=O)[C@H](Cc2ccccc2)NC(=O)CCOCCOCCOCCOCCOCCNC(=O)[C@@H](N)CCCNC(=N)N)C(=O)N[C@@H](Cc2ccccc2)C(=O)O)C(=O)OCc2c1cc1n(c2=O)Cc2cc3ccccc3nc2-1 [Compound 10, Arg-PEG4-Phe-Arg-Dab(CO-CPT)-Phe-OH] (H-R[PEG5]FR[Dab](Camptothecin(20S-OCO))F-OH; N-terminus assumed) | 0.9 | 0.1 |  |  |  | 
CC[C@@]1(OC(=O)OC[C@H](NC(=O)[C@H](CCCNC(=N)N)NC(=O)[C@H](Cc2ccccc2)NC(=O)CCOCCOCCOCCOCCOCCNC(=O)[C@@H](N)CCCNC(=N)N)C(=O)N[C@@H](Cc2ccccc2)C(=O)O)C(=O)OCc2c1cc1n(c2=O)Cc2cc3ccccc3nc2-1 [Compound 11, Arg-PEG4-Phe-Arg-Ser(CO-CPT)-Phe-OH] (H-R[PEG5]FRS(Camptothecin(20S-OCO))F-OH; N-terminus assumed) | 2.2 | 0.2 |  |  |  | 
COc1cc2cc(c1Cl)N(C)C(=O)C[C@H](OC(=O)[C@H](C)N(C)C(=O)CCSC1CC(=O)N(CCC(=O)NCCCC[C@H](NC(=O)[C@H](CCCCN)NC(=O)[C@H](Cc3ccccc3)NC(=O)CCOCCOCCOCCOCCNC(=O)CCN3C(=O)CC(SC[C@H](NC(C)=O)C(=O)O)C3=O)C(=O)N[C@@H](Cc3ccccc3)C(=O)O)C1=O)[C@]1(C)O[C@H]1[C@H](C)[C@@H]1C[C@@](O)(NC(=O)O1)[C@H](OC)/C=C/C=C(\C)C2 (stereo partly drawn) [Compound 12, Ac-Cys-Mal-PEG4-Phe-Lys-Lys(Mal-DM1)-Phe-OH] ({X2-PEG4}-FKK(DM1Mal(CH2)2CO)F-OH) | 1.5 |  |  | 1.53 |  | 
CC[C@H](C)[C@@H]([C@@H](CC(=O)N1CCC[C@H]1[C@H](OC)[C@@H](C)C(=O)N[C@@H](Cc1ccccc1)C(=O)NCCCC[C@H](NC(=O)[C@H](CCCCN)NC(=O)[C@H](Cc1ccccc1)NC(=O)CCOCCOCCOCCOCCNC(=O)CCN1C(=O)CC(SC[C@H](NC(C)=O)C(=O)O)C1=O)C(=O)N[C@@H](Cc1ccccc1)C(=O)O)OC)N(C)C(=O)[C@@H](NC(=O)[C@H](C(C)C)N(C)C)C(C)C (stereo partly drawn) [Compound 13, Ac-Cys-Mal-PEG4-Phe-Lys-Lys(AF)-Phe-OH] (I: {X2-PEG4}-FKKF-OH / II: NMe2Val-V[Dil][Dolaproine]F; amide I:3-II:C) | 1.6 | 0.15 |  | 1.62 |  | 
CC[C@H](C)[C@@H]([C@@H](CC(=O)N1CCC[C@H]1[C@H](OC)[C@@H](C)C(=O)N[C@@H](Cc1ccccc1)C(=O)N[C@@H](CCCNC(N)=O)C(=O)N[C@@H](CCCCNC(=O)CCOCCOCCOCCOCCNC(=O)CCN1C(=O)CC(SC[C@H](NC(C)=O)C(=O)O)C1=O)C(=O)N[C@@H](Cc1ccccc1)C(=O)O)OC)N(C)C(=O)[C@@H](NC(=O)[C@H](C(C)C)N(C)C)C(C)C (stereo partly drawn) [Compound 19, AF-Cit-Lys(PEG4-Mal-Cys-Ac)-Phe-OH] (NMe2Val-V[Dil][Dolaproine]F[Cit]K([PEG4-X2])F-OH) | 1.1 | 0.09 |  |  |  | 
COc1cc2cc(c1Cl)N(C)C(=O)C[C@H](OC(=O)[C@H](C)N(C)C(=O)CCSC1CC(=O)N(C[C@H]3CC[C@H](C(=O)NCCCC[C@H](NC(=O)[C@H](CCCNC(N)=O)NC(=O)[C@H](Cc4ccccc4)NC(=O)CCOCCOCCOCCOCCOCCNC(=O)CN4C(=O)CC(SC[C@H](NC(C)=O)C(=O)O)C4=O)C(=O)N[C@@H](Cc4ccc(O)cc4)C(=O)O)CC3)C1=O)[C@]1(C)O[C@H]1[C@H](C)[C@@H]1C[C@@](O)(NC(=O)O1)[C@H](OC)/C=C/C=C(\C)C2 (stereo partly drawn) [Compound 27, Ac-Cys-Ma-PEG5-Phe-Cit-Lys(Mcc-DM1)-Tyr-OH] | 0.06 | 0.005 |  |  | ~2300 | 
COc1cc2cc(c1Cl)N(C)C(=O)C[C@H](OC(=O)[C@H](C)N(C)C(=O)CCSC1CC(=O)N(CCC(=O)NCCCC[C@H](NC(=O)[C@H](CCCCN)NC(=O)[C@H](Cc3ccccc3)NC(=O)CCOCCOCCOCCOCCNC(=O)CCN3C(=O)CC(SC[C@H](NC(C)=O)C(=O)O)C3=O)C(=O)N[C@@H](Cc3ccccc3)C(=O)N[C@@H](Cc3ccccc3)C(=O)N[C@@H](CCCCN)C(=O)O)C1=O)[C@]1(C)O[C@H]1[C@H](C)[C@@H]1C[C@@](O)(NC(=O)O1)[C@H](OC)/C=C/C=C(\C)C2 (stereo partly drawn) [Compound 28, Ac-Cys-Mal-PEG4-Phe-Lys-Lys(Mal-DM1)-Phe-Phe-Lys-OH] ({X2-PEG4}-FKK(DM1Mal(CH2)2CO)FFK-OH) |  |  |  |  |  | 0.3
COc1cc2cc(c1Cl)N(C)C(=O)C[C@H](OC(=O)[C@H](C)N(C)C(=O)CCSC1CC(=O)N(CCC(=O)NCCCC[C@H](NC(=O)[C@H](CCCCN)NC(=O)[C@H](Cc3ccccc3)NC(=O)[C@H](Cc3ccccc3)NC(=O)[C@H](CCCCNC(=O)CCN3C(=O)CC(SCCC(=O)N(C)[C@@H](C)C(=O)O[C@H]4CC(=O)N(C)c5cc(cc(OC)c5Cl)C/C(C)=C/C=C/[C@@H](OC)[C@@]5(O)C[C@H](OC(=O)N5)[C@@H](C)[C@@H]5O[C@@]45C)C3=O)NC(=O)[C@H](CCCCN)NC(=O)[C@H](Cc3ccccc3)NC(=O)CCOCCOCCOCCOCCNC(=O)CCN3C(=O)CC(SC[C@H](NC(C)=O)C(=O)O)C3=O)C(=O)N[C@@H](Cc3ccccc3)C(=O)O)C1=O)[C@]1(C)O[C@H]1[C@H](C)[C@@H]1C[C@@](O)(NC(=O)O1)[C@H](OC)/C=C/C=C(\C)C2 (stereo partly drawn) [Compound 29, Ac-Cys-Mal-PEG4-[Phe-Lys-Lys(Mal-DM1)-Phe]2-OH] ({X2-PEG4}-FKK(DM1Mal(CH2)2CO)FFKK(DM1Mal(CH2)2CO)F-OH) |  | 0.23 |  |  | ~5 | 2.4
